Laboratory results reported in paper PMC7337056, “Structural and biochemical characterization of the pleckstrin homology domain of the RhoGEF P-Rex2 and its regulation by PIP3” (Journal of Structural Biology: X, 2018).
Numbering of substitutions follows the chain as printed.

What was measured:
Type in all cases: binding
[1] = biological target: T1, P-Rex1 PH domain (Homo sapiens, UniProt Q8TCU6, K368A); test: differential scanning fluorimetry (SYPRO orange); details: 50 mM HEPES pH 8, 150 mM NaCl, 2 mM DTT; 1 mM ligand
T1 construct: gene PREX1; PH domain, residues 245-408; 10xHis-MBP tag removed with TEV; E. coli Rosetta (DE3) pLysS

[2] = biological target: T2, P-Rex1 PH domain (Homo sapiens, UniProt Q8TCU6, K280A); test: differential scanning fluorimetry (SYPRO orange); details: 50 mM HEPES pH 8, 150 mM NaCl, 2 mM DTT; 1 mM ligand
T2 construct: gene PREX1; PH domain, residues 245-408; 10xHis-MBP tag removed with TEV; E. coli Rosetta (DE3) pLysS

[3] = biological target: T3, P-Rex2 PH domain (Homo sapiens, UniProt Q70Z35, K254A); test: differential scanning fluorimetry (SYPRO orange); details: 50 mM HEPES pH 8, 150 mM NaCl, 2 mM DTT; 1 mM ligand
T3 construct: gene PREX2; PH domain, residues 219-364 for assays (219-377 for crystal 6BNM); 10xHis-MBP tag removed with TEV; E. coli Rosetta (DE3) pLysS
T3 sequence (Q70Z35 219-364 K254A): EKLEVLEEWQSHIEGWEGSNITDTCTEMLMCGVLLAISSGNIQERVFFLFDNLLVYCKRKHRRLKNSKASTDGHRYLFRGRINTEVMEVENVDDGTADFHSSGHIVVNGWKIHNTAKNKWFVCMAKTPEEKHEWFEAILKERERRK

[4] = biological target: T4, P-Rex2 PH domain (Homo sapiens, UniProt Q70Z35); test: isothermal titration calorimetry; details: 20 mM HEPES pH 8, 150 mM NaCl, 25 °C
T4 construct: gene PREX2; PH domain, residues 219-364 for assays (219-377 for crystal 6BNM); 10xHis-MBP tag removed with TEV; E. coli Rosetta (DE3) pLysS
T4 sequence (Q70Z35 219-364): T3 sequence (Q70Z35 219-364 K254A) with A36K

[5] = biological target: T5, P-Rex2 PH domain (Homo sapiens, UniProt Q70Z35, K337A); test: differential scanning fluorimetry (SYPRO orange); details: 50 mM HEPES pH 8, 150 mM NaCl, 2 mM DTT; 1 mM ligand
T5 construct: gene PREX2; PH domain, residues 219-364 for assays (219-377 for crystal 6BNM); 10xHis-MBP tag removed with TEV; E. coli Rosetta (DE3) pLysS
T5 sequence (Q70Z35 219-364 K337A): T3 sequence (Q70Z35 219-364 K254A) with A36K, K119A

[6] = biological target: T4, P-Rex2 PH domain; test: differential scanning fluorimetry (SYPRO orange)

T1 sequence (Q8TCU6 245-408 K368A): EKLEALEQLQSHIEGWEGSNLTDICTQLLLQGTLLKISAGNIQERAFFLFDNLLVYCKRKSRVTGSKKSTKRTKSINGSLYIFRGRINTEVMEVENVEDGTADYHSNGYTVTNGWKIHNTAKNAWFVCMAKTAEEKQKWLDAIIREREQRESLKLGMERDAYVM
T2 sequence (Q8TCU6 245-408 K280A): as the sequence (Q8TCU6 245-408 K368A) above, with K36A, A124K counted along it

Kd [4]: 0.24 ± 0.14 µM
ΔTm at 1000 µM [6]: 11 °C
Compound: O=P(O)(O)OC1[C@H](O)[C@H](OP(=O)(O)O)C(OP(=O)(O)O)[C@H](OP(=O)(O)O)[C@H]1O (stereo partly drawn) [Ins(1,3,4,5)P4, D-myo-Inositol-1,3,4,5-tetraphosphate]
ΔTm at 1 mM [1]: P-Rex1 variants display the same trends in binding deficiency
ΔTm at 1 mM [2]: P-Rex1 variants display the same trends in binding deficiency
ΔTm at 1 mM [3]: mutation of any one of the PIP3-binding residues drastically reduces the temperature shift
ΔTm at 1 mM [5]: mutation of any one of the PIP3-binding residues drastically reduces the temperature shift
